Reference: US20230132823A1, “BI-FUNCTIONAL COMPOUNDS AND METHODS FOR TARGETED UBIQUITINATION OF ANDROGEN RECEPTOR” (MONTELINO THERAPEUTICS, INC., priority 2020, published 2023)

Legend:
AR-V7 = biological target: T1, AR-V7 (Homo sapiens, UniProt P10275); test: Immunoblot of AR-V7 polyubiquitination in 22Rv1 pretreated with MG132; format: cell-based; parameters: endogenous in cells; host or cells: 22Rv1; conditions: 22Rv1 pretreated with MG132 two hours; compound 1 μM
T1 sequence (P10275 1-644 isoform P10275-3): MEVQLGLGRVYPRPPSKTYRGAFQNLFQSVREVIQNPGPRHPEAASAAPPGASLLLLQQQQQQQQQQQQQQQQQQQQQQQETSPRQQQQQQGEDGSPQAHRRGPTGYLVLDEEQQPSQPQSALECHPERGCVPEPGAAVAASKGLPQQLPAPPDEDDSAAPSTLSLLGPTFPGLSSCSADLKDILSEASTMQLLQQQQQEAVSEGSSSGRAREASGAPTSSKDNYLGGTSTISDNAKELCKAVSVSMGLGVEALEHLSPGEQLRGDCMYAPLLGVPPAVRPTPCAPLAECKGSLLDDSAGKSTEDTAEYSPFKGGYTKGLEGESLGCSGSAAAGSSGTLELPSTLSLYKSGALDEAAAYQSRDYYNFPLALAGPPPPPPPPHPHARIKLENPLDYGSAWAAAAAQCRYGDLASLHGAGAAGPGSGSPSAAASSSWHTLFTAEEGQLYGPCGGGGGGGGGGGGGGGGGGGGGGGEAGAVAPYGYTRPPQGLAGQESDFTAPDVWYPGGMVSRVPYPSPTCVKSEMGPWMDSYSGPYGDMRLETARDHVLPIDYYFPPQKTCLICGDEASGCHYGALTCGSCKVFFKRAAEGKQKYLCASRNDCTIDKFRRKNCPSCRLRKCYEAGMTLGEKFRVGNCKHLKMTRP
Protocol: (§1) Immunoblot Analysis. CaP cells are collected and lysed with the lysis buffer (20 mM Tris-HCl (pH 7.5), 150 mM NaCl, 1 mM Na2EDTA, 1 mM EGTA, 1% Triton, 2.5 mM sodium pyrophosphate, 1 mM beta-glycerophosphate, 1 mM Na3VO4, and 1 μg/ml leupeptin) containing 1 mM phenylmethylsulfonyl fluoride (PMSF). Cell lysates are then centrifuged and protein in the supernatant is quantified. After separating 25-50 μg of protein using SDS-PAGE, samples are incubated with AR-V7, GR, PR, ERα, AR-FL, ubiquitin, or β-actin antibodies. For AR-V7, AR-FL, PR, GR, and ERα immunoblots, primary antibody is diluted 1:1000 in 5% skim milk. For the β-actin immunoblot, 1:10000 diluted primary antibody is used. All membranes are incubated overnight at 4° C. Following the incubation with appropriate secondary antibody, immunoblots are analyzed using SuperSignal West Femto Maximum Sensitivity Substrate (ThermoFisher).
(§2) To determine the ubiquitination status of AR proteins, 22Rv1 is pretreated with MG132 for two hours prior to adding Compound of Example 16 (at 1 μM).

AR-FL = biological target: T2, AR-FL (Homo sapiens, UniProt P10275, DUP590-628/H875Y); test: Immunoblot of AR-FL polyubiquitination in 22Rv1 pretreated with MG132; format: cell-based; parameters: decreased AR-V7 and AR-FL protein expression levels in 22Rv1 cells; endogenous in cells; host or cells: 22Rv1; conditions: 22Rv1 pretreated with MG132 two hours; compound 1 μM
T2 sequence (P10275 with tags, fused parts or gaps DUP590-628/H875Y): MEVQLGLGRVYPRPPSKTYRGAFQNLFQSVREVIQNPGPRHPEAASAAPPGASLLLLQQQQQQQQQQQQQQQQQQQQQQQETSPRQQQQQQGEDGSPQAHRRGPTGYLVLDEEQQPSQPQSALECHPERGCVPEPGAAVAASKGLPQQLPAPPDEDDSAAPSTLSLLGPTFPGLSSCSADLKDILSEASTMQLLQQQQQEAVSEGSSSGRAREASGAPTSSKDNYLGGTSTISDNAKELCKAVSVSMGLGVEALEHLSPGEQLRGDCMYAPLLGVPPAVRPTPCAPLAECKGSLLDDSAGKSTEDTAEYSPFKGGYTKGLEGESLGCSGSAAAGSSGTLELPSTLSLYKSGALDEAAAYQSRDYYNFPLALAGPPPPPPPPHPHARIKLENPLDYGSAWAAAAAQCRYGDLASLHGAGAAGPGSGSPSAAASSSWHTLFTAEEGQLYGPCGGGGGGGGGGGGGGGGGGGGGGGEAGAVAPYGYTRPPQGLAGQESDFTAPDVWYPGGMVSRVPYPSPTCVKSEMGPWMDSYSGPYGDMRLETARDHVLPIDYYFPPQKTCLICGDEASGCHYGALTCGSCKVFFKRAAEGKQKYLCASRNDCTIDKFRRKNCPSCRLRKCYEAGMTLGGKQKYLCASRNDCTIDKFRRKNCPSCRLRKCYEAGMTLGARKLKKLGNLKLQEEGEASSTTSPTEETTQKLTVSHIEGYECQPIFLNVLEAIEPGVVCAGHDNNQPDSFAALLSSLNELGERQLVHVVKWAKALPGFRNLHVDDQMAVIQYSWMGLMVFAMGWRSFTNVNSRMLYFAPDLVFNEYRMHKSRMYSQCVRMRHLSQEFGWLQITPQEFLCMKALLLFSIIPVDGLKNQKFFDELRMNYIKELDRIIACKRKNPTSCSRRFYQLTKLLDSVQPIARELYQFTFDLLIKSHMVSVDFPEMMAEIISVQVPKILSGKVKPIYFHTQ
Protocol: as §1, §2

start of polyubiquitination of AR-V7 after treatment (AR-V7): 6 h | time of detection of AR-FL polyubiquitination after treatment (AR-FL): 24 h
Structure (SMILES): Cc1ncsc1-c1ccc([C@H](C)NC(=O)[C@@H]2C[C@@H](O)CN2C(=O)[C@@H](NC(=O)CCCCNC(=O)COc2c(-c3csc(N4CCOCC4)n3)ccc(F)c2F)C(C)(C)C)cc1 [Example 16, (2S,4R)-1-((S)-2-(5-(2-(2,3-difluoro-6-(2-morpholinothiazol-4-yl)phenoxy)acetamido)pentanamido)-3,3-dimethylbutanoyl)-4-hydroxy-N-((S)-1-(4-(4-methylthiazol-5-yl)phenyl)ethyl)pyrrolidine-2-carboxamide]
